Source: US20240116985A1, “STAPLED PEPTIDES AND METHODS THEREOF” (priority 2020, published 2024)
Where two headings read alike, the source gives them in different places.

Legend:
[1] = molecular target: T1, full-length beta-Catenin (Uniprot ID P35222) (Homo sapiens, UniProt P35222); experiment: Fluorescence polarization IC50 (beta-catenin / 5FAM-TCF4 10-53 competition); assay type: binding; conditions: fluorescence polarization
T1 construct: 10 nM full-length beta-Catenin (Uniprot ID P35222)
T1 sequence (P35222 1-781): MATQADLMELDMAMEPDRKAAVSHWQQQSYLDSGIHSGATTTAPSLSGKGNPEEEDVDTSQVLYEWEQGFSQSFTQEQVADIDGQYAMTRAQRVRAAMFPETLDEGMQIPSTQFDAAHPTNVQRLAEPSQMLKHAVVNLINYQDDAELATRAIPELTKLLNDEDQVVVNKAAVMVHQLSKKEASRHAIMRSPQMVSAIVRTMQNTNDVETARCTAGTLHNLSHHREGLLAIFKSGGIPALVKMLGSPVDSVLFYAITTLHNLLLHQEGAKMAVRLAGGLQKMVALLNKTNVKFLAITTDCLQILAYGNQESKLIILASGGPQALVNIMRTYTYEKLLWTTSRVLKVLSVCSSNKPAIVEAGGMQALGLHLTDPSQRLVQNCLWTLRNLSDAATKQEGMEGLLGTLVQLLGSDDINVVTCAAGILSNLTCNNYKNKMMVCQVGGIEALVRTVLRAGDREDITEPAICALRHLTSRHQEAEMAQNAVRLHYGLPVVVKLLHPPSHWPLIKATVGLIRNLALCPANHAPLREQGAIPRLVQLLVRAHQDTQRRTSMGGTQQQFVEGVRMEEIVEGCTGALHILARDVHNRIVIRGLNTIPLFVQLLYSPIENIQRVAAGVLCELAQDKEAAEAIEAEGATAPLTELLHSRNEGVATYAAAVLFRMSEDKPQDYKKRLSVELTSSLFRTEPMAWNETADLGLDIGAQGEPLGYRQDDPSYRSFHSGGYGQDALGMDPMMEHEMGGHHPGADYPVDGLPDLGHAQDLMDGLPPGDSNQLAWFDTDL

[2] = molecular target: T2, beta-catenin/TCF4 engagement (Homo sapiens, UniProt P35222); experiment: Nano-BRET target engagement assay (B-cat-Halo & TCF4-Luc in HEK293 cells); assay type: cell-based
T2 construct: expressed in transfected cells; host or cells: HEK293
T2 sequence (P35222 1-781): T1 sequence (P35222 1-781)

COLO320DM cells = assay type: cell-based; conditions: COLO320DM cells, read-out: COLO320DM Proliferation Abs IC50
Experimental: COLO320DM proliferation assay IC50: In some embodiments, inhibition of cell proliferation by provided technologies were assessed using cell lines related to or from certain conditions, disorders or diseases. In some embodiments, cell proliferation was assessed in COLO320DM cells. In some embodiments, assessment was performed using the following procedure: On Day 1, cultured COLO320DM cells in a T75 flask were trypsinized in 3 mL of 0.25% trypsin/EDTA for 5 min and quenched with 10 mL RPMI-1640+4% HI FBS assay media. The cells were spun down at 1200 rpm for 5 min, the cell pellet collected and re-suspended at 5000 cells/mL in assay media. Using a Combi liquid handler, cells were dispensed (50 uL, 250 cells/well) into three 384 well plates. Plates were incubated at 37° C., […]. On day 2, compounds were added. A liquid handling system was used to prepare the compound dilution and dispense compound into assay plates. The compounds were serially diluted 1/2 in 90% DMSO to create a 7 point dose curve. From compound plate, 100 nL of compound were dispensed directly into wells of the assay plates to create a dose curve starting at 20 uM and ending at 313 nM. Assay plates were incubated at 37° C., […]. On day 6, assay plates were removed from the incubator and allowed to sit at room temperature for 30 min. Using a liquid handler, 20 uL of CellTiter Glo reagent was added to each well. The assay plates were shaken for 2 min and allowed to sit on the bench for 10-15 minutes. The assay plates were read using the CellTiter Glo protocol on a GloMax microplate reader, and the data analyzed using GraphPad Prism.

[3] = absolute IC50, read-out: NanoBRET Abs IC50

Row | Compound | IC50 ([1]; read-out: beta-Catenin FP IC50) [nM] | IC50 [2, 3] [µM] | IC50 (COLO320DM cells; absolute IC50) [nM] | IC50 ([2]; read-out: NanoBRET Abs IC50) [µM] | IC50 (COLO320DM cells) [nM] | IC50 ([1]; beta-Catenin FP IC50 (nM)) [nM] | IC50 ([2]; NanoBRET Abs IC50 (uM), absolute IC50) [µM]
1 | CCCC[C@@H]1NC(=O)[C@H](Cc2ccccc2)NC(=O)[C@H](C)NC(=O)[C@H](C)NC(=O)[C@H](Cc2cccc(C(=O)O)c2)NC(=O)[C@H](CC(=O)O)NC(=O)C2(CCCC=CCCCOC(=O)N3CC[C@@](C(=O)N[C@@H](Cc4ccccc4C(F)(F)F)C(=O)N[C@@H](Cc4csc5ccccc45)C(=O)N[C@@H](CCC(=O)N(C)C)C(N)=O)(C3)NC1=O)CCCC=CC[C@]1(CCCN1C(C)=O)C(=O)N[C@@H](CC(=O)O)C(=O)N[C@@H](CC(C)(C)C)C(=O)N2 (stereo partly drawn) [I-2533, Ac-PL3-Asp-Npg-B5-Asp-3COOHF-Ala-Ala-Phe-nLeu-PyrS2-2F3MeF-BztA-Me2Gln-NH2] | 28 | 6.2 | > 20000 |  |  |  | 
2 | CC(=O)N1CCC[C@]12CC=CCCCC1(CCCC=CCCCOC(=O)N3CC[C@@](C(=O)N[C@@H](Cc4ccccc4C(F)(F)F)C(=O)N[C@@H](Cc4csc5ccccc45)C(=O)N[C@@H](CCC(=O)N(C)C)C(N)=O)(C3)NC(=O)[C@H](CC(C)C)NC(=O)[C@H](Cc3ccccc3)NC(=O)[C@H](C)NC(=O)[C@H](CCC(=O)N(C)C)NC(=O)[C@H](Cc3cccc(C(=O)O)c3)NC(=O)[C@H](CC(=O)O)NC1=O)NC(=O)[C@H](CC(C)(C)C)NC(=O)[C@H](CC(=O)O)NC2=O (stereo partly drawn) [I-2300, Ac-PL3-Asp-Npg-B5-Asp-3COOHF-[NMe2]GlnR-Ala-Phe-Leu-PyrS2-2F3MeF-BztA-INMe2]GlnR-NH2] | 6 | 1.2 | > 20000 |  |  |  | 
3 | CC(=O)N1CCC[C@]12CC=CCCCC1(CCCC=CCCCOC(=O)N3CC[C@@](C(=O)N[C@@H](Cc4ccsc4)C(=O)N[C@@H](Cc4csc5ccccc45)C(=O)N[C@@H](CC(N)=O)C(=O)N[C@@H](C)C(=O)N[C@@H](C)C(=O)N[C@@H](C)C(=O)N[C@@H](C)C(=O)N[C@@H](C)C(N)=O)(C3)NC(=O)[C@H](CC(C)C)NC(=O)[C@H](Cc3ccccc3)NC(=O)[C@H](C)NC(=O)[C@H](C)NC(=O)[C@H](Cc3cccc(C(=O)O)c3)NC(=O)[C@H](CC(=O)O)NC1=O)NC(=O)[C@H](CC(C)(C)C)NC(=O)[C@H](CC(=O)O)NC2=O (stereo partly drawn) [I-2268, Ac-PL3-Asp-Npg-B5-Asp-3COOHF-Ala-Ala-Phe-Leu-PyrS2-3Thi-BztA-Asn-Ala-Ala-Ala-Ala-Ala-NH2] | 13 | 3.1 | 4300 |  |  |  | 
4 | CC(=O)N1CCC[C@]12CC=CCCCC1(CCCC=CCCCOC(=O)N3CC[C@@](C(=O)N[C@@H](Cc4ccsc4)C(=O)N[C@@H](Cc4csc5ccccc45)C(=O)N[C@H](CO)C(=O)N[C@@H](C)C(N)=O)(C3)NC(=O)[C@@H](CO)NC(=O)[C@H](Cc3ccccc3)NC(=O)[C@H](C)NC(=O)C(C)(C)NC(=O)[C@H](Cc3cccc(C(=O)O)c3)NC(=O)[C@H](CC(=O)O)NC1=O)NC(=O)[C@H](CC(C)(C)C)NC(=O)[C@H](CC(=O)O)NC2=O (stereo partly drawn) [I-2576, Ac-PL3-Asp-Npg-B5-Asp-3COOHF-Aib-Ala-Phe-dSer-PyrS2-3Thi-BztA-dSer-Ala-NH2] | 6 |  |  | 16.1 | > 20000 |  | 
5 | COCCN(CCOC)C(=O)CC[C@@H]1NC(=O)[C@H](Cc2cccc(C(=O)O)c2)NC(=O)[C@H](CC(=O)O)NC(=O)C2(CCCC=CCCCOC(=O)N3CC[C@@](C(=O)N[C@@H](Cc4ccccc4C(F)(F)F)C(=O)N[C@@H](Cc4csc5ccccc45)C(=O)N[C@@H](C)C(N)=O)(C3)NC(=O)[C@H](CC(C)C)NC(=O)[C@H](Cc3ccccc3)NC(=O)[C@H](C)NC1=O)CCCC=CC[C@]1(CCCN1C(C)=O)C(=O)N[C@@H](CC(=O)O)C(=O)N[C@@H](CC(C)(C)C)C(=O)N2 (stereo partly drawn) [I-2322, Ac-PL3-Asp-Npg-B5-Asp-3COOHF-[bismethoxyethylamine]GlnR-Ala-Phe-Leu-PyrS2-2F3MeF-BztA-Ala-NH2] | 7 | 1.8 | > 20000 |  |  |  | 
6 | CC(=O)N1CCC[C@]12CC=CCCCC1(CCCC=CCCCOC(=O)N3CC[C@@](C(=O)N[C@@H](Cc4ccccc4C(F)(F)F)C(=O)N[C@@H](Cc4csc5ccccc45)C(=O)N[C@@H](C)C(N)=O)(C3)NC(=O)[C@H](CC(C)C)NC(=O)[C@H](Cc3ccccc3)NC(=O)[C@H](C)NC(=O)[C@H](CCC(=O)N3CCOCC3)NC(=O)[C@H](Cc3cccc(C(=O)O)c3)NC(=O)[C@H](CC(=O)O)NC1=O)NC(=O)[C@H](CC(C)(C)C)NC(=O)[C@H](CC(=O)O)NC2=O (stereo partly drawn) [I-2315, Ac-PL3-Asp-Npg-B5-Asp-3COOHF-[Morph]GlnR-Ala-Phe-Leu-PyrS2-2F3MeF-BztA-Ala-NH2] | 5 | 1.2 | > 20000 |  |  |  | 
7 | CC(=O)N1CCC[C@]12CC=CCCCC1(CCCC=CCCCOC(=O)N3CC[C@@](C(=O)N[C@@H](Cc4ccccc4C(F)(F)F)C(=O)N[C@@H](Cc4csc5ccccc45)C(=O)N[C@@H](C)C(N)=O)(C3)NC(=O)[C@H](CC(C)C)NC(=O)[C@H](Cc3ccccc3)NC(=O)[C@H](C)NC(=O)[C@H](CCC(=O)N3CCN(CC(F)(F)F)CC3)NC(=O)[C@H](Cc3cccc(C(=O)O)c3)NC(=O)[C@H](CC(=O)O)NC1=O)NC(=O)[C@H](CC(C)(C)C)NC(=O)[C@H](CC(=O)O)NC2=O (stereo partly drawn) [I-2316, Ac-PL3-Asp-Npg-B5-Asp-3COOHF-[TfePpz]GlnR-Ala-Phe-Leu-PyrS2-2F3MeF-BztA-Ala-NH2] | 11 | 1.6 | > 20000 |  |  |  | 
8 | CC(=O)N1CCC[C@]12CC=CCCCC1(CCCC=CCCCOC(=O)N3CC[C@@](C(=O)N[C@@H](Cc4ccccc4C(F)(F)F)C(=O)N[C@@H](Cc4csc5ccccc45)C(=O)N[C@@H](C)C(N)=O)(C3)NC(=O)[C@H](CC(C)C)NC(=O)[C@H](Cc3ccccc3)NC(=O)[C@H](C)NC(=O)[C@H](CCC(=O)N3CCNC(=O)C3)NC(=O)[C@H](Cc3cccc(C(=O)O)c3)NC(=O)[C@H](CC(=O)O)NC1=O)NC(=O)[C@H](CC(C)(C)C)NC(=O)[C@H](CC(=O)O)NC2=O (stereo partly drawn) [I-2318, Ac-PL3-Asp-Npg-B5-Asp-3COOHF-[2OxoPpz]GlnR-Ala-Phe-Leu-PyrS2-2F3MeF-BztA-Ala-NH2] | 5 | 1.8 | > 20000 |  |  |  | 
9 | CC(=O)N1CCC[C@]12CC=CCCCC1(CCCC=CCCCOC(=O)N3CC[C@@](C(=O)N[C@@H](Cc4ccsc4)C(=O)N[C@@H](Cc4csc5ccccc45)C(=O)N[C@@H](CC(N)=O)C(=O)N[C@@H](C)C(=O)N[C@@H](C)C(=O)N[C@@H](C)C(=O)N[C@@H](C)C(=O)N[C@@H](C)C(=O)N[C@@H](C)C(=O)N[C@@H](C)C(N)=O)(C3)NC(=O)[C@H](CC(C)C)NC(=O)[C@H](Cc3ccccc3)NC(=O)[C@H](C)NC(=O)[C@H](C)NC(=O)[C@H](Cc3cccc(C(=O)O)c3)NC(=O)[C@H](CC(=O)O)NC1=O)NC(=O)[C@H](CC(C)(C)C)NC(=O)[C@H](CC(=O)O)NC2=O (stereo partly drawn) [I-2269] |  |  | 3900 |  |  | 20 | 2.3
10 | CC(=O)N1CCC[C@]12CC=CCCCC1(CCCC=CCCCOC(=O)N3CC[C@@](C(=O)N[C@@H](Cc4ccsc4)C(=O)N[C@@H](Cc4csc5ccccc45)C(=O)N[C@@H](CC(N)=O)C(N)=O)(C3)NC(=O)[C@H](Cc3ccccc3)NC(=O)[C@H](Cc3ccccc3)NC(=O)[C@H](C)NC(=O)[C@H](C)NC(=O)[C@H](Cc3cccc(C(=O)O)c3)NC(=O)[C@H](CC(=O)O)NC1=O)NC(=O)[C@H](CC(C)(C)C)NC(=O)[C@H](CC(=O)O)NC2=O (stereo partly drawn) [I-2044, Ac-PL3-Asp-Npg-B5-Asp-3COOHF-Ala-Ala-Phe-Phe-PyrS2-3Thi-BztA-Asn-NH2] | 9 |  |  | 2.6 | > 20000 |  | 
